Reference: PubChem BioAssay AID256 (DTP/NCI, 2004)
Values joined by “and” are separate entries in the source; they are usually repeats but may differ in a detail not shown here. Equal values may be shown once. Inconclusive results and toxic doses are left out.

Test system: CD2F1 mice, L1210 leukemia ip, survival T/C
Experiment: NCI In Vivo Anticancer Drug Screen. Data for tumor model L1210 Leukemia (intraperitoneal) in CD2F1 (CDF1) mice
Settings: higher = longer survival
Procedure, shortened: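 Each value reflects a quotient of treated over vehicle control outcomes in mice with a transplanted tumor.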

[1] = endpoint: mean survival time, dose: 100.0 mg/kg/injection, schedule: Q04DX003 (ip), vehicle: saline
[2] = endpoint: mean survival time, dose: 200.0 mg/kg/injection, schedule: Q04DX003 (ip), vehicle: saline
[3] = endpoint: mean survival time, dose: 100.0 mg/kg/injection, schedule: Q01DX009 (ip), vehicle: saline with Tween-80
[4] = endpoint: mean survival time, dose: 200.0 mg/kg/injection, schedule: Q01DX009 (ip), vehicle: saline with Tween-80
[5] = endpoint: mean survival time, dose: 400.0 mg/kg/injection, schedule: Q01DX009 (ip), vehicle: saline with Tween-80
[6] = endpoint: mean survival time, dose: 100.0 mg/kg/injection, schedule: Q04DX003 (ip), vehicle: saline with Tween-80
[7] = endpoint: mean survival time, dose: 200.0 mg/kg/injection, schedule: Q04DX003 (ip), vehicle: saline with Tween-80
[8] = endpoint: mean survival time, dose: 100.0 mg/kg/injection, schedule: Q01DX009 (ip), vehicle: Klucel (hydroxypropylcellulose) (HPC)
[9] = endpoint: mean survival time, dose: 200.0 mg/kg/injection, schedule: Q01DX009 (ip), vehicle: Klucel (hydroxypropylcellulose) (HPC)
[10] = endpoint: mean survival time, dose: 400.0 mg/kg/injection, schedule: Q01DX009 (ip), vehicle: Klucel (hydroxypropylcellulose) (HPC)

Cc1cccc[n+]1CC(=O)c1ccccc1
T/C (endpoint: mean survival time, dose: 25.0 mg/kg/injection, schedule: Q04DX003 (ip), vehicle: saline): 104 % of control | T/C (endpoint: mean survival time, dose: 50.0 mg/kg/injection, schedule: Q04DX003 (ip), vehicle: saline): 96 % of control | T/C [1]: 96 % of control

NNC(=O)C1CCN1C(c1ccccc1)c1ccccc1 (stereo unspecified)
T/C (endpoint: mean survival time, dose: 100.0 mg/kg/injection, schedule: Q01DX001 (ip), vehicle: saline with Tween-80): 98 % of control

O=C1CCCC1=P(c1ccccc1)(c1ccccc1)c1ccccc1
T/C (endpoint: mean survival time, dose: 100.0 mg/kg/injection, schedule: Q04DX003 (ip), vehicle: other): 99 % of control | T/C (endpoint: mean survival time, dose: 200.0 mg/kg/injection, schedule: Q04DX003 (ip), vehicle: other): 90 % of control

COc1nc(NC2OC(CO)C(O)C(O)C2O)cc(=O)n1C (stereo unspecified)
T/C (endpoint: median survival time, dose: 12.5 mg/kg/injection, schedule: Q01DX005 (ip), vehicle: saline): 98 % of control | T/C (endpoint: median survival time, dose: 25.0 mg/kg/injection, schedule: Q01DX005 (ip), vehicle: saline): 98 % of control | T/C (endpoint: median survival time, dose: 50.0 mg/kg/injection, schedule: Q01DX005 (ip), vehicle: saline): 100 % of control | T/C (endpoint: median survival time, dose: 100.0 mg/kg/injection, schedule: Q01DX005 (ip), vehicle: saline): 102 % of control | T/C (endpoint: median survival time, dose: 200.0 mg/kg/injection, schedule: Q01DX005 (ip), vehicle: saline): 102 % of control

CC(=O)C(C)N(C)C (stereo unspecified)
T/C [1]: 105 % of control | T/C [2]: 100 % of control | T/C (endpoint: mean survival time, dose: 400.0 mg/kg/injection, schedule: Q04DX003 (ip), vehicle: saline): 96 % of control

Cc1ccc2c(c1)nc1c3ccccc3nnn21
T/C (endpoint: mean survival time, dose: 75.0 mg/kg/injection, schedule: Q01DX001 (ip), vehicle: saline): 95 % of control | T/C (endpoint: mean survival time, dose: 150.0 mg/kg/injection, schedule: Q01DX001 (ip), vehicle: saline): 95 % of control

C=C(C)[C@@H]1CCc2c(O)c(O)c(=O)cc(C)c2C1
T/C (endpoint: mean survival time, dose: 3.12 mg/kg/injection, schedule: Q01DX009 (ip), vehicle: saline with Tween-80): 89 % of control | T/C (endpoint: mean survival time, dose: 6.25 mg/kg/injection, schedule: Q01DX009 (ip), vehicle: saline with Tween-80): 96 % of control | T/C (endpoint: mean survival time, dose: 12.5 mg/kg/injection, schedule: Q01DX009 (ip), vehicle: saline with Tween-80): 93 % of control | T/C (endpoint: mean survival time, dose: 25.0 mg/kg/injection, schedule: Q01DX009 (ip), vehicle: saline with Tween-80): 95 % of control | T/C (endpoint: mean survival time, dose: 50.0 mg/kg/injection, schedule: Q01DX009 (ip), vehicle: saline with Tween-80): 106 % of control | T/C [3]: 108 % of control

Nc1nnnn1-c1cccc(Cl)c1
T/C [3]: 96 % of control | T/C [4]: 102 % of control | T/C [5]: 106 % of control

NC(=S)N=Nc1c(O)cc(O)c2[nH]c(=O)ccc12
T/C (endpoint: mean survival time, dose: 100.0 mg/kg/injection, schedule: Q01DX001 (ip), vehicle: saline): 109 % of control

Oc1c(Cl)cc(Cl)cc1C=NCCSc1ccc(Cl)cc1
T/C (endpoint: median survival time, dose: 25.0 mg/kg/injection, schedule: Q01DX009 (ip), vehicle: Klucel (hydroxypropylcellulose) (HPC)): 112 % of control | T/C (endpoint: median survival time, dose: 50.0 mg/kg/injection, schedule: Q01DX009 (ip), vehicle: Klucel (hydroxypropylcellulose) (HPC)): 101 % of control | T/C (endpoint: median survival time, dose: 100.0 mg/kg/injection, schedule: Q01DX009 (ip), vehicle: Klucel (hydroxypropylcellulose) (HPC)): 97 % of control | T/C (endpoint: median survival time, dose: 200.0 mg/kg/injection, schedule: Q01DX009 (ip), vehicle: Klucel (hydroxypropylcellulose) (HPC)): 100 % of control

N#CSCc1ccccc1Cl
T/C (endpoint: mean survival time, dose: 2.5 mg/kg/injection, schedule: Q01DX009 (ip), vehicle: saline sonified): 91 % of control | T/C (endpoint: mean survival time, dose: 5.0 mg/kg/injection, schedule: Q01DX009 (ip), vehicle: saline sonified): 96 % of control | T/C (endpoint: mean survival time, dose: 5.0 mg/kg/injection, schedule: Q04DX003 (ip), vehicle: saline with Tween-80): 95 % of control | T/C (endpoint: mean survival time, dose: 10.0 mg/kg/injection, schedule: Q01DX009 (ip), vehicle: saline sonified): 96 % of control | T/C (endpoint: mean survival time, dose: 10.0 mg/kg/injection, schedule: Q04DX003 (ip), vehicle: saline with Tween-80): 86 % of control

CC(C)S(=O)(=O)/C=C(\I)c1ccccc1
T/C [1]: 100 % of control | T/C [2]: 102 % of control

O=NN(CCCl)C(=S)NC1CCCCC1
T/C (endpoint: mean survival time, dose: 6.25 mg/kg/injection, schedule: Q01DX001 (ip), vehicle: other): 104 % of control | T/C (endpoint: mean survival time, dose: 12.5 mg/kg/injection, schedule: Q01DX001 (ip), vehicle: other): 211 % of control | T/C (endpoint: mean survival time, dose: 25.0 mg/kg/injection, schedule: Q01DX001 (ip), vehicle: other): 246 % of control and 403 % of control | T/C (endpoint: mean survival time, dose: 50.0 mg/kg/injection, schedule: Q01DX001 (ip), vehicle: other): 295 % of control and 523 % of control

COP(=O)(NC(C)=O)OC
T/C (endpoint: mean survival time, dose: 50.0 mg/kg/injection, schedule: Q04DX002 (ip), vehicle: saline): 87 % of control | T/C (endpoint: mean survival time, dose: 100.0 mg/kg/injection, schedule: Q04DX002 (ip), vehicle: saline): 93 % of control | T/C (endpoint: mean survival time, dose: 200.0 mg/kg/injection, schedule: Q04DX002 (ip), vehicle: saline): 93 % of control | T/C (endpoint: mean survival time, dose: 400.0 mg/kg/injection, schedule: Q04DX002 (ip), vehicle: saline): 96 % of control

O=C(O)C(O)(Cl)c1cccs1 (stereo unspecified)
T/C [6]: 98 % of control | T/C [7]: 95 % of control | T/C (endpoint: mean survival time, dose: 400.0 mg/kg/injection, schedule: Q04DX003 (ip), vehicle: saline with Tween-80): 95 % of control

O=C1CSC(=S)N1C1OC(CO)C(O)C1O (stereo unspecified)
T/C (endpoint: mean survival time, dose: 12.5 mg/kg/injection, schedule: Q01DX005 (ip), vehicle: distilled water + Tween-80): 111 % of control | T/C (endpoint: mean survival time, dose: 25.0 mg/kg/injection, schedule: Q01DX005 (ip), vehicle: distilled water + Tween-80): 102 % of control | T/C (endpoint: mean survival time, dose: 50.0 mg/kg/injection, schedule: Q01DX005 (ip), vehicle: distilled water + Tween-80): 102 % of control | T/C (endpoint: mean survival time, dose: 100.0 mg/kg/injection, schedule: Q01DX005 (ip), vehicle: distilled water + Tween-80): 101 % of control | T/C (endpoint: mean survival time, dose: 200.0 mg/kg/injection, schedule: Q01DX005 (ip), vehicle: distilled water + Tween-80): 92 % of control

O=C1C(Br)=CC(Br)(Br)C=C1Br
T/C [3]: 88 % of control | T/C [4]: 91 % of control | T/C [5]: 86 % of control

O=C(O)c1ccccc1O.[Fe]
T/C (endpoint: mean survival time, dose: 200.0 mg/kg/injection, schedule: Q01DX001 (ip), vehicle: saline): 112 % of control

O=C1C(=O)C(Br)=C(Br)C(Br)=C1Br
T/C [6]: 91 % of control | T/C [7]: 91 % of control

O=C1NN=C2CCCCC12 (stereo unspecified)
T/C [8]: 97 % of control | T/C [9]: 96 % of control | T/C [10]: 102 % of control

CCC1(O)C(=O)OCc2c1cc1n(c2=O)Cc2cc3ccc(C(=O)O)cc3nc2-1 (stereo unspecified)
T/C (endpoint: median survival time, dose: 10.0 mg/kg/injection, schedule: Q04DX002 (ip), vehicle: saline with Tween-80): 108 % of control | T/C (endpoint: median survival time, dose: 10.0 mg/kg/injection, schedule: Q04DX002 (ip), vehicle: water): 100 % of control | T/C (endpoint: median survival time, dose: 20.0 mg/kg/injection, schedule: Q04DX002 (ip), vehicle: saline with Tween-80): 101 % of control | T/C (endpoint: median survival time, dose: 20.0 mg/kg/injection, schedule: Q04DX002 (ip), vehicle: water): 109 % of control | T/C (endpoint: median survival time, dose: 40.0 mg/kg/injection, schedule: Q04DX002 (ip), vehicle: saline with Tween-80): 108 % of control | T/C (endpoint: median survival time, dose: 40.0 mg/kg/injection, schedule: Q04DX002 (ip), vehicle: water): 106 % of control | T/C (endpoint: median survival time, dose: 80.0 mg/kg/injection, schedule: Q04DX002 (ip), vehicle: saline with Tween-80): 108 % of control | T/C (endpoint: median survival time, dose: 80.0 mg/kg/injection, schedule: Q04DX002 (ip), vehicle: water): 106 % of control

CCOC(=O)C1C2OC(=O)C(C(=O)C2CN(CCCl)CCCl)C1C1CC=C(CC2=CCC(C3C4C(=O)OC(C(CN(CCCl)CCCl)C4=O)C3C(=O)OCC)CC2)CC1 (stereo unspecified)
T/C (endpoint: mean survival time, dose: 6.25 mg/kg/injection, schedule: Q01DX009 (ip), vehicle: Klucel (hydroxypropylcellulose) (HPC)): 121 % of control | T/C (endpoint: mean survival time, dose: 12.5 mg/kg/injection, schedule: Q01DX009 (ip), vehicle: Klucel (hydroxypropylcellulose) (HPC)): 121 % of control | T/C (endpoint: mean survival time, dose: 50.0 mg/kg/injection, schedule: Q01DX009 (ip), vehicle: Klucel (hydroxypropylcellulose) (HPC)): 154 % of control and 162 % of control | T/C [8]: 154 % of control and 232 % of control | T/C [9]: 111 % of control | T/C [10]: 88 % of control
